# Experimental data as given in US8519154B2, “Method for treatment of bronchial asthma” (Council of Scientific & Industrial Research, priority 2011, dated 2013).
# Assays:
# [1] = Crossing of the intestinal barrier; type: in vitro ADME
# Lipophilicity = type: physicochemical
# mice = test: Analgesic activity by hot plate method; type: in vivo
# Experimental: Analgesic activity was carried out by Hot Plate method. The response time for paw licking or jumping on the heated plate of analgesiometer (55±1° C.). (Socrel, Ugo Basile, Italy) was taken as the reaction time. A comparison of reaction time (in seconds) between control (untreated) and Compound I treated mice was made for a group of 6 animals in each test group [Eddy, N B., Leimbach, D., Synthetic analgesics, II. Dithienylbutenyl- and dithienylbutylamines. J. Pharmacol. Exp. Ther. 107 (1953) 385-393].
# The time for hind paw licking or jumping on the heated plate of analgesiometer (Socrel, ugo basile, Italy) was taken as the reaction time.
# [2] = 28 d sub-acute oral toxicity (OECD TG 407); type: in vivo, mice; settings: both sexes, Balb/c, mouse, in vivo; mice, 28 d oral
# Experimental: (§1) The study was performed according to the guidelines laid in OECD TG 407. Young healthy adult mice (Balb/c) weighing between 28 to 35 g were employed and randomly assigned to the control and treatment groups and kept in their cages for at least five days prior to the start of the treatment to allow for acclimatisation to the laboratory conditions. 10 animals (five female and five male) were used at each dose level. Local standards of laboratory animal care were maintained. The temperature in the experimental animal room was maintained at 24° C.±3° C. and the relative humidity between 40 to 60% with 12 hours artificial light and 12 hours dark photoperiod. For feeding, conventional sterile pellet diets (Nay Chetan) with an unlimited supply of RO drinking water was given. A sample of the diet was retained until finalisation of the report. Animals were housed in small groups of 5 of the same sex.
# (§2) Blunt ended canula was used for gavaging. During the period of administration of Compound I, the animals are observed closely (30 minutes cage side observation), each day for signs of toxicity till the day of sacrifice. Weights of animals and measurements of food consumption were made once in a week.
# (§3) Experimental animals were sacrificed on day 29. Before sacrifice, blood was drawn from the retro-orbital sinus of mice with the help of heparinised capillary tubes and split in to two parts. Part taken in tubes containing EDTA was used for hematological studies with the help of Automatic Hematology Analyzer (Medonic). The other part was allowed to clot for 2 h and serum separated by centrifugation at 3000 rpm for 5 min, and subsequently used for clinical biochemistry and immunoglobuling profiling. Post sacrifice, the individual organs were dissected out, weighed and percentage relative organ weights determined. Spleen, lymphnode and bone marrow cell viability were judged by trypan blue dye exclusion test.
# (§4) The blood left after the hematological studies were allowed to clot for 2 h and serum separated by centrifugation at 3000 rpm for 5 min and subsequently used for clinical biochemistry. Details of the clinical biochemistry are given below in table II.
# (§5) Serum concentrations of total IgG and IgM were measured by ELISA and Cell mediated immunity was measured in terms of % increase in paw volume in mice sensitized with SRBC.
# (§6) Histopathology was carried out on vital organs by fixing organs in 10% buffered formalin saline for 72 h followed by washing, dehydrating and embedding on paraffin wax. Paraffin blocks were sectioned (4-5μ tick), deparaffinised and stained with hematoxylin and eosin for viewing and photography under microscope (Nikion, Japan). Histopathology was performed in the control and high dose groups unless mentioned otherwise.
# mice (Balb/c) = test: 28 d sub-acute oral toxicity (OECD TG 407); type: in vivo; settings: for Protein: normal 6-9; for SGOT: normal 19@25° C.; for Glucose: normal 55-130; for Bilirubin: normal <1.1; for SGPT: normal <22 @25° C.; for CMI DTH (% increase in paw vol): SRBC sensitized; for Total Ig IgG / Total Ig IgM: serum, ELISA; for % viability BM / % viability LN / % viability Spleen: trypan blue
# Experimental: as §1, §2, §3, §4, §5, §6
compound,measurement,setting,value
"COc1cc(C=O)cc2c1[nH]c1ccccc12 [Compound I, 1-methoxy-3-formyl-9H carbazole]",crosses the intestinal barrier,[1],largely by passive diffusion
same,lipophilicity,Lipophilicity,highly lipophilic
same,Reaction time,"mice; 12.5 mg/kg p.o., 0 hr",11.08 ± 1.60 s
same,Reaction time,"mice; 12.5 mg/kg p.o., 1 hr",10.62 ± 1.64 s
same,Reaction time,"mice; 25 mg/kg p.o., 0 hr",13.58 ± 2.15 s
same,Reaction time,"mice; 25 mg/kg p.o., 1 hr",14.62 ± 4.67 s
same,Reaction time,"mice; 50 mg/kg p.o., 0 hr",14.38 ± 1.87 s
same,Reaction time,"mice; 50 mg/kg p.o., 1 hr",14.34 ± 1.07 s
same,change in the reaction time on a hot plate,"mice; 12.5, 25 and 50 mg/kg orally, 55±1° C.",did not show any significant change in the reaction time
same,NOAEL at 28 days,[2],93 mg/kg
same,HGB,"mice (Balb/c); 42 mg/kg, 28 d oral",9.47 ± 1.7 g/dL
same,PLT,"mice (Balb/c); 42 mg/kg, 28 d oral",439 ± 76 × 10^3/mm^3
same,RBC,"mice (Balb/c); 42 mg/kg, 28 d oral",7.29 ± 1.46 ×10^6/mm^3
same,WBC,"mice (Balb/c); 42 mg/kg, 28 d oral",6.7 ± 1.2 10^3/mm^3
same,Protein,"mice (Balb/c); 42 mg/kg, 28 d oral",7.93 ± 1.33 g/dL
same,SGOT,"mice (Balb/c); 42 mg/kg, 28 d oral",15.51 ± 3.6 U/L
same,Glucose,"mice (Balb/c); 42 mg/kg, 28 d oral",127 ± 17 mg/dL
same,Bilirubin,"mice (Balb/c); 42 mg/kg, 28 d oral",0.74 ± 0.08 mg/dL
same,SGPT,"mice (Balb/c); 42 mg/kg, 28 d oral",18.54 ± 2.1 U/L
same,CMI DTH (% increase in paw vol),"mice (Balb/c); 47 mg/kg, 28 d oral",17.23 ± 4.4 % increase in paw vol
same,Total Ig IgG,"mice (Balb/c); 47 mg/kg, 28 d oral",3.1 ± 0.85 mg/mL
same,Total Ig IgM,"mice (Balb/c); 47 mg/kg, 28 d oral",1.48 ± 0.12
same,% viability BM,"mice (Balb/c); 47 mg/kg, 28 d oral",97.3 ± 3.5%
same,% viability LN,"mice (Balb/c); 47 mg/kg, 28 d oral",95.9 ± 5.4%
same,% viability Spleen,"mice (Balb/c); 47 mg/kg, 28 d oral",96.8 ± 4.8%
same,glucose vs normal range,mice (Balb/c); 93 mg/kg,marginally higher than the normal range
same,symptoms of toxicity,mice (Balb/c); 93 mg/kg body weight,no symptoms of toxicity
same,HGB,"mice (Balb/c); 93 mg/kg, 28 d oral",12.8 ± 2.4 g/dL
same,PLT,"mice (Balb/c); 93 mg/kg, 28 d oral",426 ± 43 × 10^3/mm^3
same,RBC,"mice (Balb/c); 93 mg/kg, 28 d oral",8.52 ± 1.4 ×10^6/mm^3
same,WBC,"mice (Balb/c); 93 mg/kg, 28 d oral",5.9 ± 1.4 10^3/mm^3
same,CMI DTH (% increase in paw vol),"mice (Balb/c); 93 mg/kg, 28 d oral",19.2 ± 6.3 % increase in paw vol
same,Protein,"mice (Balb/c); 93 mg/kg, 28 d oral",8.73 ± 2.8 g/dL
same,SGOT,"mice (Balb/c); 93 mg/kg, 28 d oral",12.9 ± 1.92 U/L
same,Glucose,"mice (Balb/c); 93 mg/kg, 28 d oral",133 ± 13 mg/dL
same,Bilirubin,"mice (Balb/c); 93 mg/kg, 28 d oral",0.17 ± 0.068 mg/dL
same,SGPT,"mice (Balb/c); 93 mg/kg, 28 d oral",10.2 ± 2.9 U/L
same,Total Ig IgG,"mice (Balb/c); 93 mg/kg, 28 d oral",3.6 ± 1.26 mg/mL
same,Total Ig IgM,"mice (Balb/c); 93 mg/kg, 28 d oral",1.12 ± 0.33
same,% viability BM,"mice (Balb/c); 93 mg/kg, 28 d oral",96.8 ± 4.6%
same,% viability LN,"mice (Balb/c); 93 mg/kg, 28 d oral",96.5 ± 4.6%
same,% viability Spleen,"mice (Balb/c); 93 mg/kg, 28 d oral",95.4 ± 5.3%
same,SGOT vs normal range,mice (Balb/c); 187 mg/kg,marginally higher than the normal range
same,glucose level vs normal range,mice (Balb/c); 187 mg/kg,much higher than the normal range
same,kidney histopathology,mice (Balb/c); 187 mg/kg,sign of necrosis in the corticular region
same,signs of toxicity,mice (Balb/c); 187 mg/kg,Few signs of toxicity
same,HGB,"mice (Balb/c); 187 mg/kg, 28 d oral",13.2 ± 1.8 g/dL
same,PLT,"mice (Balb/c); 187 mg/kg, 28 d oral",472 ± 65 × 10^3/mm^3
same,RBC,"mice (Balb/c); 187 mg/kg, 28 d oral",8.6 ± 0.67 ×10^6/mm^3
same,WBC,"mice (Balb/c); 187 mg/kg, 28 d oral",5.9 ± 4.1 10^3/mm^3
same,CMI DTH (% increase in paw vol),"mice (Balb/c); 187 mg/kg, 28 d oral",17.4 ± 6.6 % increase in paw vol
same,Protein,"mice (Balb/c); 187 mg/kg, 28 d oral",7.27 ± 0.85 g/dL
same,SGOT,"mice (Balb/c); 187 mg/kg, 28 d oral",20.2 ± 0.85 U/L
same,Glucose,"mice (Balb/c); 187 mg/kg, 28 d oral",183 ± 20 mg/dL
same,Bilirubin,"mice (Balb/c); 187 mg/kg, 28 d oral",0.91 ± 0.057 mg/dL
same,SGPT,"mice (Balb/c); 187 mg/kg, 28 d oral",15.83 ± 2.32 U/L
same,Total Ig IgG,"mice (Balb/c); 187 mg/kg, 28 d oral",2.9 ± 0.56 mg/mL
same,Total Ig IgM,"mice (Balb/c); 187 mg/kg, 28 d oral",1.04 ± 0.34
same,% viability BM,"mice (Balb/c); 187 mg/kg, 28 d oral",94.67 ± 4.9%
same,% viability LN,"mice (Balb/c); 187 mg/kg, 28 d oral",97.4 ± 3.9%
same,% viability Spleen,"mice (Balb/c); 187 mg/kg, 28 d oral",98.4 ± 4.4%
same,DTH response vs sham treated control,mice (Balb/c); SRBC sensitized mice,insignificant changes
same,acute oral LOAEL,"mice (Balb/c); mice, 28 d oral",187 mg/kg
same,"viability of bone marrow cells, splenocyte and lymph node lymphocyte vs sham control",mice (Balb/c); trypan blue dye exclusion test,No significant changes
